ChEMBL document CHEMBL1201862, “PubChem BioAssay data set” (2004)
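The compound was tested at five concentrations on cells cultured in 96-well plates, with a 48-hour exposure period. GI50 = concentration required for 50% inhibition of growth.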 The source made the active and inactive calls. No stated cut-off is given here; in the data, active = GI50 up to about 1.1 µM and inactive = higher.

Assays:
Assay in all cases: growth of human tumour cells (NCI), 48 h
786-0 = system: 786-0
A498 = system: A498
CAKI-1 = system: CAKI-1
COLO 205 = system: COLO 205
DU-145 = system: DU-145
Hs-578T = system: Hs-578T
K562 = system: K562
LOX IMVI = system: LOX IMVI
MCF7 = system: MCF7
Malme-3M = system: Malme-3M
NCI-H522 = system: NCI-H522
NCI/ADR-RES = system: NCI/ADR-RES
OVCAR-5 = system: OVCAR-5
PC-3 = system: PC-3
SF-268 = system: SF-268
SK-MEL-2 = system: SK-MEL-2
SW-620 = system: SW-620
T47D = system: T47D
U-251 = system: U-251

SMILES | GI50 (786-0) | GI50 (A498) | GI50 (CAKI-1) | GI50 (COLO 205) | GI50 (DU-145) | GI50 (Hs-578T) | GI50 (K562) | GI50 (LOX IMVI) | GI50 (MCF7) | GI50 (Malme-3M) | GI50 (NCI-H522) | GI50 (NCI/ADR-RES) | GI50 (OVCAR-5) | GI50 (PC-3) | GI50 (SF-268) | GI50 (SK-MEL-2) | GI50 (SW-620) | GI50 (T47D) | GI50 (U-251)
O=C1O[C@H]2[C@@H]3OC(=O)c4cc(O)c(O)c(O)c4-c4c(cc(O)c(O)c4O)C(=O)OC[C@H]2O[C@@H](OC(=O)c2cc(O)c(O)c(O)c2)[C@@H]3OC(=O)c2cc(O)c(O)c3c2[C@@H]2C1=CC(=O)C(O)(O)C2(O)O3 (stereo partly specified) | 18.1 µM (inactive) | 82.8 µM (inactive) | 14.1 µM (inactive) | 25.9 µM (inactive) | 47 µM (inactive) | 40.4 µM (inactive) | 29.6 µM (inactive) | 13.3 µM (inactive) | 25.2 µM (inactive) | 84.9 µM (inactive) | 28.1 µM (inactive) | 39.3 µM (inactive) | 16.4 µM (inactive) | 39.7 µM (inactive) | 74.1 µM (inactive) | 29.9 µM (inactive) | 18.5 µM (inactive) | 26.8 µM (inactive) | 15.6 µM (inactive)
CCCCCCCCCCCCCCCCCCOCC(O)COP(=O)(O)OCC1OC(n2cc(F)c(=O)[nH]c2=O)CC1O (stereo unspecified) | 1.22 µM (inactive) | 2.66 µM (inactive) | 2.16 µM (inactive) | 5.15 µM (inactive) | 1.15 µM (inactive) | 14.3 µM (inactive) | 10.4 µM (inactive) | 0.658 µM (active) | 0.492 µM (active) | 14.4 µM (inactive) | 11.9 µM (inactive) | 2.05 µM (inactive) | 12.5 µM (inactive) | 3.07 µM (inactive) | 0.236 µM (active) | 21.4 µM (inactive) | 13.7 µM (inactive) | 2.58 µM (inactive) | 1.75 µM (inactive)
CC1(C)CC[C@]2(C(=O)O)CC[C@]3(C)C(=CC[C@@H]4[C@@]5(C)CC[C@H](OC6OC(CO)C(O)C(O)C6OC6OC(CO)C(O)C(O)C6O)C(C)(C)[C@@H]5CC[C@]43C)[C@@H]2C1 (stereo partly specified) | 16.6 µM (inactive) | 18.5 µM (inactive) | 19.5 µM (inactive) | 15.4 µM (inactive) | 17.2 µM (inactive) | 24.2 µM (inactive) | 19.8 µM (inactive) | 28.2 µM (inactive) | 19.6 µM (inactive) | 15.5 µM (inactive) | 20.6 µM (inactive) | 21.2 µM (inactive) | 2.49 µM (inactive) | 17 µM (inactive) | 17.2 µM (inactive) | 0.0509 µM (active) | 22.5 µM (inactive) | 21.3 µM (inactive) | 2.38 µM (inactive)
O=C1C2C3C4C1C1C2[C@H](OCc2ccccc2)C3C1[C@H]4OCc1ccccc1 (stereo partly specified) | > 100 µM (inactive) | > 100 µM (inactive) | 41.7 µM (inactive) | 28.9 µM (inactive) | > 100 µM (inactive) | 20.5 µM (inactive) | > 100 µM (inactive) | 40.4 µM (inactive) | > 100 µM (inactive) | 76 µM (inactive) | 11.2 µM (inactive) | 19.7 µM (inactive) | 24.3 µM (inactive) | 36.1 µM (inactive) | 60.5 µM (inactive) | 51.2 µM (inactive) | 46 µM (inactive) | 34.4 µM (inactive) | 77.3 µM (inactive)
Cc1cc2c(cc1C)[n+]([O-])c(C(F)(F)F)c(C(=O)c1ccccc1)[n+]2[O-] | 3.47 µM (inactive) | 4.44 µM (inactive) | 0.76 µM (active) | 1.82 µM (inactive) | 1.62 µM (inactive) | 2.58 µM (inactive) | 2.27 µM (inactive) | 2.17 µM (inactive) | 3.27 µM (inactive) | 2.39 µM (inactive) | 2.99 µM (inactive) | 2.49 µM (inactive) | 3.08 µM (inactive) | 2.09 µM (inactive) | 1.91 µM (inactive) | 4.89 µM (inactive) | 3.72 µM (inactive) | 0.724 µM (active) | 2.67 µM (inactive)
O=c1ccn(CC2(CO)CCCC2)c(=O)[nH]1 | > 100 µM (inactive) | 7.64 µM (inactive) | > 100 µM (inactive) | > 100 µM (inactive) | > 100 µM (inactive) | > 100 µM (inactive) | > 100 µM (inactive) | > 100 µM (inactive) | > 100 µM (inactive) | > 100 µM (inactive) | > 100 µM (inactive) | > 100 µM (inactive) | > 100 µM (inactive) | > 100 µM (inactive) | > 100 µM (inactive) | > 100 µM (inactive) | > 100 µM (inactive) | > 100 µM (inactive) | > 100 µM (inactive)
COc1ccc(C2NC3=C(CCCC3)C3(C#N)C(=O)N=C(N)C23C#N)cc1 (stereo unspecified) | > 100 µM (inactive) | > 100 µM (inactive) | > 100 µM (inactive) | > 100 µM (inactive) | > 100 µM (inactive) | > 100 µM (inactive) | > 100 µM (inactive) | > 100 µM (inactive) | > 100 µM (inactive) | > 100 µM (inactive) | > 100 µM (inactive) | > 100 µM (inactive) | > 100 µM (inactive) | > 100 µM (inactive) | > 100 µM (inactive) | > 100 µM (inactive) | > 100 µM (inactive) | > 100 µM (inactive) | > 100 µM (inactive)
O=C(O)COc1c(Cl)cc(Cl)c(C(c2c(Cl)cc(Cl)c(OCC(=O)O)c2Cl)C(Cl)(Cl)Cl)c1Cl | 37.2 µM (inactive) | 35.7 µM (inactive) | 33.7 µM (inactive) | 40 µM (inactive) | 38.3 µM (inactive) | 38 µM (inactive) | 33.3 µM (inactive) | 33.7 µM (inactive) | 36.1 µM (inactive) | 28.7 µM (inactive) | 33.8 µM (inactive) | 34 µM (inactive) | 29.3 µM (inactive) | 38 µM (inactive) | 39.6 µM (inactive) | 19.8 µM (inactive) | 29.8 µM (inactive) | 30.3 µM (inactive) | 26.7 µM (inactive)
CCOC(=O)C(=O)/C(=C/N1C(=O)CC(=O)NC1=S)C(=O)OCC | > 100 µM (inactive) | 83.6 µM (inactive) | > 100 µM (inactive) | > 100 µM (inactive) | > 100 µM (inactive) | 18.7 µM (inactive) | > 100 µM (inactive) | > 100 µM (inactive) | > 100 µM (inactive) | > 100 µM (inactive) | > 100 µM (inactive) | > 100 µM (inactive) | > 100 µM (inactive) | > 100 µM (inactive) | > 100 µM (inactive) | > 100 µM (inactive) | > 100 µM (inactive) | > 100 µM (inactive) | > 100 µM (inactive)
COC(=O)[C@@H]1C[C@H]([Se]c2ccccc2)CN1S(=O)(=O)c1ccc(C)cc1 | > 100 µM (inactive) | > 100 µM (inactive) | > 100 µM (inactive) | 61.5 µM (inactive) | > 100 µM (inactive) | 60.7 µM (inactive) | 34.7 µM (inactive) | > 100 µM (inactive) | 60.3 µM (inactive) | > 100 µM (inactive) | 38.9 µM (inactive) | 34.1 µM (inactive) | > 100 µM (inactive) | 26.5 µM (inactive) | 27.9 µM (inactive) | 21.4 µM (inactive) | > 100 µM (inactive) | 35.7 µM (inactive) | 53 µM (inactive)
CC(C)(C)c1cc(C(=O)/C=C/c2cc[nH]n2)cc(C(C)(C)C)c1O | 1.58 µM (inactive) | 2.17 µM (inactive) | 2.48 µM (inactive) | 2.07 µM (inactive) | 2.56 µM (inactive) | 2.57 µM (inactive) | 3.08 µM (inactive) | 1.85 µM (inactive) | 1.36 µM (inactive) | 7.29 µM (inactive) | 1.43 µM (inactive) | 4.62 µM (inactive) | 5.37 µM (inactive) | 2.08 µM (inactive) | 2.4 µM (inactive) | 1.78 µM (inactive) | 2.33 µM (inactive) | 1.11 µM (active) | 1.73 µM (inactive)
O=S(=O)(O)CCCc1cccc2ccccc12 | > 100 µM (inactive) | > 100 µM (inactive) | > 100 µM (inactive) | > 100 µM (inactive) | > 100 µM (inactive) | > 100 µM (inactive) | > 100 µM (inactive) | > 100 µM (inactive) | > 100 µM (inactive) | > 100 µM (inactive) | > 100 µM (inactive) | > 100 µM (inactive) | > 100 µM (inactive) | > 100 µM (inactive) | > 100 µM (inactive) | > 100 µM (inactive) | > 100 µM (inactive) | > 100 µM (inactive) | > 100 µM (inactive)
C=C(Cl)[C@@](Cl)(CBr)CC[C@@H](Br)C(C)(C)Cl | 0.0603 µM (active) | 0.938 µM (active) | 0.467 µM (active) | 0.5 µM (active) | 0.664 µM (active) | 0.386 µM (active) | 0.473 µM (active) | 13.2 µM (inactive) | 0.249 µM (active) | 21.7 µM (inactive) | 22.4 µM (inactive) | 0.522 µM (active) | 1.59 µM (inactive) | 0.555 µM (active) | 0.251 µM (active) | 0.458 µM (active) | 0.321 µM (active) | 0.153 µM (active) | 0.154 µM (active)
C=C(C)C(=O)OC1CC2(C)OC2CC(OC(C)=O)/C(C)=C/C2OC(=O)C(=C)C21 (stereo unspecified) | 2.22 µM (inactive) | 12.9 µM (inactive) | 2.53 µM (inactive) | 1.52 µM (inactive) | 2.13 µM (inactive) | 2.3 µM (inactive) | 0.56 µM (active) | 2.73 µM (inactive) | 2.33 µM (inactive) | 0.573 µM (active) | 0.124 µM (active) | 2.68 µM (inactive) | 5.83 µM (inactive) | 9.08 µM (inactive) | 2.12 µM (inactive) | 5.37 µM (inactive) | 0.426 µM (active) | 3.48 µM (inactive) | 12.5 µM (inactive)
